Here are results for four compounds from patent US12287332B2, “Test cartridges” (First Light Diagnostics, Inc., priority 2018, dated 2025).

≈ marks a conversion by molar mass, not a printed value.

Common to all, as to type: cell-based
The subject of one test is E. coli ATCC 25922. The experiment in a line: Novel 4.5-hour AST in presence of beta-lactamase producing K. pneumoniae, Example 11. To be noted: Escherichia coli, ATCC25922, 4.5 h; sensitive E. coli strain; increasing amounts of beta-lactamase producing K. pneumoniae; read-out: MIC, novel 4.5-hour AST method. The method, then: Experimental procedure. Preparation of Antibiotic Plates: Antibiotic plates prepared as described in Impact of Non-Sterile Sample on Target MIC example.
E. coli was diluted to 5×10^5 CFU/mL (CLSI standard concentration) while K. pneumoniae was diluted to various inoculum (ranging from 1×10^6 and 5×10^8 CFU/mL).
30 μL of each processed urine was added to 70 μL of 1× cation-adjusted Mueller-Hinton Broth (MHBII) containing species-specific Alexa647N-labeled DNA oligonucleotide FISH probes and unlabeled DNA helper probes. […] 10 μL of the prepared magnetic particle mixture was then added to the well.
Four-Hour Growth: The E. coli was tested in the presence of varying inoculum of K. pneumoniae-OXA for susceptibility against 2 antimicrobial agents: Imipenem and Meropenem.
100 μL of each well of the incubated sample-antibiotic plate was transferred to a corresponding well of a dehydrated buffer plate and combined with FISH probes, helper probes, magnetic particles, and focus particles in the same manner as described above for assay time zero.
All data was then compared to CLSI standard BMD.

Another test relates to K. pneumoniae CDC0126. The experiment in a line: Novel rapid AST (4 h differential growth, FISH cell counting) in urine matrix, Example 7. To be noted: Klebsiella pneumoniae, 4 h growth, fold-growth threshold 20, read-out: MIC generated by novel rapid AST method. The method, then: Bacterial cell preparation: 50 bacterial strains with known resistance profiles were collected from either the ATCC or from the CDC antibiotic resistance bank (AR bank) and are shown in Table A. Bacterial cultures for each of these were obtained by inoculating Trypticase Soy Broth (TSB, Hardy Diagnostics cat. U65) with 3 to 5 colonies from fresh tryptic soy agar plates (TSA, BD cat. 221185) and growing for 1.5 to 3 hours at 35° C. to achieve log-phase growth. Using optical density at 600 nm to estimate cell concentration, each culture was diluted to approximately 5×10^6 colony-forming units (CFU)/mL in cation-adjusted Mueller Hinton II (MHBII, Teknova cat. M5860).
A reaction mixture was prepared consisting of 30 μL processed urine, 10 μL of the 5×10^6 CFU/mL bacterial dilution, 60 μL MHBII (1× final concentration in 100 μL) and the appropriate species-specific Alexa647N-labeled DNA oligonucleotide FISH probe and its associated unlabeled DNA helper probes for the target bacterial species. […] 10 μL of the prepared magnetic particle mixture was then added to the well. […]
Four Hour Growth: While the time zero cell quantification was occurring, 12 μL of prepared bacterial culture, 36 uL pooled human urine processed as done for the assay time zero, 60 uL of 2×MHB II (Teknova, cat. #M5860) and 2 uL water was added to each well of the prepared antibiotic plate. […]

The subject of test [1] is K. pneumoniae strain in clinical urine sample BIUR0084. The experiment in a line: Automated MultiPath AST cartridge on clinical urine, Example 8. Particulars: 4 h growth, fold growth value of 2, matched CLSI broth microdilution. A general note: Broth dilution looks for growth in wells or tubes with falling amounts of substance.

Take `C[C@@H](O)[C@H]1C(=O)N2C(C(=O)O)=C(SCCN=CN)C[C@H]12` [Imipenem]: in the test on E. coli ATCC 25922, the MIC (as a rule, the least concentration at which growth counts as inhibited) is less than 1 µg/mL.
Regarding `O=C(O)c1cn(C2CC2)c2cc(N3CCNCC3)c(F)cc2c1=O` [Ciprofloxacin], in the test on K. pneumoniae CDC0126, the MIC came to 0.25 µg/mL (≈ 0.754 µM).
Consider Trimethoprim/Sulfamethoxazole, for which the “sensitive/resistant call by MultiPath” value in test [1] was “resistant”.
Still for that read-out and setting: to `Cc1nnc(SCC2=C(C(=O)O)N3C(=O)[C@@H](NC(=O)Cn4cnnn4)[C@H]3SC2)s1` [Cefazolin] belongs “resistant”.
